We go through 29 molecules from patent publication US9447087B2, “Galactokinase inhibitors for the treatment and prevention of associated diseases and disorders” (UNIVERSITY OF UTAH RESEARCH FOUNDATION, priority 2011, dated 2016).

In one data set the target is GALK (Homo sapiens (Human), UniProt P51570). Nature of the data set: primary qHTS assay for inhibitors of GALK (KinaseGlo ATP depletion). It is filed as biochemical. The note with it: 5 nM GALK, 35 μM ATP, 1 hr incubation. As for the experimental part:
Assay details and protocol: The primary assay monitored ATP depletion using Promega's KinaseGlo™ technology, where ATP levels are measured through luminescence generated from firefly luciferase, a bioluminescent ATP-dependent enzymes. […] This was used as the positive control for the assay. […]
(In general: qHTS replaces the single test concentration by a dilution series.)

A further data set concerns HEK293 cells. Briefly: cytotoxicity, Promega CellTiter Glo on HEK293 cells (PubChem ID 2547). The conditions noted are these: analyzed after 48 hours. The data set is classed as cell-based. How it is done: (§1) The selectivity for these analogs against CDP-ME kinase, another member of the GHMP kinase family, was performed using a bioluminescent Kinase Glo™ assay that detects ATP depletion after kinase reaction (PubChem ID 2506). […] All analogs were also tested for cytotoxicity using Promega CellTiter Glo on HEK293 cells that were treated with compounds and analyzed after 48 hours.
(In ATP-based viability assays light output follows the ATP content of the culture.)

Another data set deals with CDP-ME kinase (Escherichia coli (strain K12), UniProt P62615). Nature of the data set: selectivity against CDP-ME kinase (bioluminescent Kinase Glo ATP depletion, PubChem ID 2506). It is filed as biochemical. The note with it: up to 57 μM. How it is done:
as §1, with “hours. […] In addition, the ability of these compounds to undergo redox recycling, which may lead to false positive results, was also evaluated using an endpoint colorimetric assay; this assay detects the presence of H2O2 in the kinase reaction buffer (PubChem ID 2502).” for “hours.”

A further data set in a line: Solubility in PBS. It is filed as physicochemical. The conditions noted are these: aqueous buffer, pH 7.4, 23° C.

Structures are written as SMILES. Converted amounts (≈) assume the structure as drawn.

Sequence of GALK (P51570 whole entry): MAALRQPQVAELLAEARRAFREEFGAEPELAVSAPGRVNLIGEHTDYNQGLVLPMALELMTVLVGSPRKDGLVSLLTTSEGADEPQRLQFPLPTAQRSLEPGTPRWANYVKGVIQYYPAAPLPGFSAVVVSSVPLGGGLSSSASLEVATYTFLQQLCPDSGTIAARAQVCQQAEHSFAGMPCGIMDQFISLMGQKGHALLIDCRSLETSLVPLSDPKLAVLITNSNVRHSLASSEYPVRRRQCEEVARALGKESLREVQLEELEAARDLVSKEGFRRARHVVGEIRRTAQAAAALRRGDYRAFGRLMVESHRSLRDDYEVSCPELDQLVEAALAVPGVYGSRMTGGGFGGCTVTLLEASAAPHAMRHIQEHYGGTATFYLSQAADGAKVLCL
Sequence of CDP-ME kinase (P62615 whole entry, looked up): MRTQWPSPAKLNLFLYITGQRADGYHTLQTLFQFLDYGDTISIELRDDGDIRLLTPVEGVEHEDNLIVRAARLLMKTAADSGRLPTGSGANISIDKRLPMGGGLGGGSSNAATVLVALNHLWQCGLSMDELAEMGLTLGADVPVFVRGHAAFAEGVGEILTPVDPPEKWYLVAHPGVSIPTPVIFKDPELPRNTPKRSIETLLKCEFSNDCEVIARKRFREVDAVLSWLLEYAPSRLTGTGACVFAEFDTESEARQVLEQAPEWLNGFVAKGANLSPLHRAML

With `O=C1CCCC2=C1C1(CCC1)N=C(Nc1nc3ccccc3o1)N2` [Compound 3], the midpoint of inhibition against GALK, the IC50, lay at 16.8 µM. In addition, in the data set on HEK293 cells, the “cytotoxic effect on HEK293 cells” value is recorded as “no cytotoxic effect”.

Turning to `O=C1CCCC2=C1C1(CCCC1)N=C(Nc1nc3ccccc3o1)N2` [Compound 4], the “cytotoxic effect on HEK293 cells” value with HEK293 cells is given as “no cytotoxic effect”.

As to `O=C1CC(c2ccccc2)CC2=C1C1(CCCCC1)N=C(Nc1nc3ccccc3o1)N2` (stereo not shown) [Compound 6], 42.1 µM corresponded to half-maximal inhibition on GALK (IC50). For the same molecule, the “cytotoxic effect on HEK293 cells” value with HEK293 cells was “no cytotoxic effect”.

As for `CC1(C)CC(=O)C2=C(C1)NC(Nc1nc3ccccc3o1)=NC21CCCC1` [Compound 8], the midpoint of inhibition on GALK, the IC50, lay at 6.68 µM. Also, the “cytotoxic effect on HEK293 cells” value in the data set on HEK293 cells was “no cytotoxic effect”.

Regarding `O=C1CCC2=C1C1(CCCC1)N=C(Nc1nc3ccccc3o1)N2` [Compound 10], on GALK, the IC50 (in general, the midpoint of a concentration-inhibition curve) turned out to be 13.3 µM. The “cytotoxic effect on HEK293 cells” value in the data set with HEK293 cells is “no cytotoxic effect”.

For the molecule `O=C1CCCC2=C1C1(CCCC1)N=C(Nc1nc3cc(Cl)ccc3o1)N2` [Compound 20], the IC50 at GALK stood at 6.68 µM. Besides, in the data set on HEK293 cells, the “cytotoxic effect on HEK293 cells” value is listed as “no cytotoxic effect”.

In turn, `Cc1ccc2oc(NC3=NC4(CCCC4)C4=C(CCCC4=O)N3)nc2c1` [Compound 26] returned an IC50 against GALK of 5.95 µM. Besides, the “cytotoxic effect on HEK293 cells” value in the data set on HEK293 cells was “no cytotoxic effect”.

On to `O=C1CCCC2=C1C1(CCCC1)N=C(Nc1nc3cc(Br)ccc3o1)N2` [Compound 27], for which the IC50 at GALK amounted to 7.49 µM. Also, in the data set on HEK293 cells, the “cytotoxic effect on HEK293 cells” value is recorded as “no cytotoxic effect”.

The molecule `Cc1ccc2nc(NC3=NC4(CCCC4)C4=C(CCCC4=O)N3)oc2c1` [Compound 28] had an IC50 against GALK of 21.1 µM. Also, the “cytotoxic effect on HEK293 cells” value in the data set on HEK293 cells is reported as “no cytotoxic effect”.

At GALK, `O=C1CCCC2=C1C1(CCCC1)N=C(Nc1nc3cc4ccccc4cc3o1)N2` [Compound 33] came in with an IC50 of 37.5 µM. Moreover, the “cytotoxic effect on HEK293 cells” value in the data set with HEK293 cells was “no cytotoxic effect”.

With `Cn1c(NC2=NC3(CCCC3)C3=C(CCCC3=O)N2)nc2ccccc21` [Compound 35], the IC50 against GALK came out at 74.9 µM. Besides, in the data set on HEK293 cells, the “cytotoxic effect on HEK293 cells” value is “no cytotoxic effect”.

Regarding `CC1=C(C(=O)N(C)C)C(c2ccccc2Br)N=C(Nc2nc3ccccc3o2)N1` (stereo not shown) [Compound 91], the IC50 against GALK worked out at 20.6 µM.

As to `CC1=C(C(=O)NCc2ccccc2)C(c2ccccc2Br)N=C(Nc2nc3ccccc3o2)N1` (stereo not shown) [Compound 92], 6.51 µM corresponded to half-maximal inhibition against GALK (IC50).

`CC1=C(C(=O)Nc2nncs2)C2(CCCC2)N=C(Nc2nc3ccccc3o2)N1` [Compound 93] gave an IC50 on GALK of 3.26 µM.

Molecule `CC1=C(C(=O)Nc2ccon2)C2(CCCC2)N=C(Nc2nc3ccccc3o2)N1` [Compound 94] returned a half-inhibitory concentration (IC50) against GALK of 6.51 µM. Against the preceding molecule, the IC50 is about 2-fold higher.

On to `CC1=C(C(=O)Nc2nc3ccccc3s2)C2(CCCC2)N=C(Nc2nc3ccccc3o2)N1` [Compound 95], for which 25.9 µM corresponded to half-maximal inhibition at GALK (IC50).

Molecule `CC1=C(C(=O)Nc2ccon2)C(c2nn(C)cc2Cl)N=C(Nc2nc3ccccc3o2)N1` (stereo not shown) [Compound 97] showed an IC50 against GALK of 8.19 µM. Compared with the last molecule, the IC50 is about 3.2-fold lower.

Take `CC1=C(C(=O)Nc2nc3ccccc3s2)C(c2nn(C)cc2Cl)N=C(Nc2nc3ccccc3o2)N1` (stereo not shown) [Compound 98]: the IC50 at GALK amounted to 9.19 µM.

With `CC1=C(C(=O)Nc2nnc(-c3ccccc3)s2)C(c2nn(C)cc2Cl)N=C(Nc2nc3ccccc3o2)N1` (stereo not shown) [Compound 100], at GALK, the IC50 turned out to be 3.66 µM. Against the preceding molecule, the IC50 is about 2.5-fold lower.

The molecule `CC1=C(C(=O)NC2CC2)C(c2nn(C)cc2Cl)N=C(Nc2nc3ccccc3o2)N1` (stereo not shown) [Compound 101] returned a half-maximal inhibitory concentration (IC50) on GALK of 18.3 µM.

On to `CC1=C(C(=O)Nc2nncs2)C(c2nn(C)cc2Cl)N=C(Nc2nc3ccccc3o2)N1` (stereo not shown) [Compound 102], for which it took 5.17 µM to reach half-maximal inhibition on GALK (IC50). Compared with the last molecule, the IC50 is about 3.5-fold lower.

In turn, `CNC(=O)C1=C(C)NC(Nc2nc3ccccc3o2)=NC1c1nn(C)cc1Cl` (stereo not shown) [Compound 105] displayed an IC50 at GALK of 16.3 µM.

In turn, `CC1=C(C(=O)Nc2nc3ccccc3s2)C(c2n[nH]cc2Cl)N=C(Nc2nc3ccccc3o2)N1` (stereo not shown) [Compound 107] had a 50% inhibitory concentration (IC50) against GALK of 11.6 µM.

The molecule `CC1=C(C(=O)Nc2nnc(-c3ccccc3)s2)C(c2n[nH]cc2Cl)N=C(Nc2nc3ccccc3o2)N1` (stereo not shown) [Compound 108] showed an IC50 against GALK of 5.17 µM.

Turning to `CNC(=O)C1=C(C)NC(Nc2nc3ccccc3o2)=NC1c1n[nH]cc1Cl` (stereo not shown) [Compound 109], the half-maximal inhibitory concentration (IC50) on GALK was 18.3 µM.

Turning to `CC1=C(C(=O)NC2CC2)C(c2n[nH]cc2Cl)N=C(Nc2nc3ccccc3o2)N1` (stereo not shown) [Compound 110], the IC50 against GALK came out at 20.6 µM.

In the case of `CNC(=O)C1=C(C)NC(Nc2nc3ccccc3o2)=NC12CCCC2` [Compound 111], the midpoint of inhibition against GALK, the IC50, lay at 20.6 µM.

On GALK, `CC1=C(C(=O)Nc2ccon2)C(c2nn(C)cc2Cl)N=C(Nc2nc3ccccc3o2)N1` (stereo not shown) [Compound 112] returned a concentration for half-maximal inhibition (IC50) of 9.19 µM.

Regarding `O=C1CCCC2=C1C1(CCCC1)N=C(Nc1nc3ccccc3o1)N2` [NCGC00187642], the “activity against CDP-ME kinase” value on CDP-ME kinase is recorded as “no activity”. Besides, the concentration in solution in the data set “Solubility in PBS” (solubility) came to 2.3 µg/mL (≈ 6.84 µM).
